Data from patent US20130196050A1, “SALTY TASTE ENHANCER” (AJINOMOTO CO., INC., priority 2010, published 2013).

Molecular target: T1, Human ENaC δ, β and γ subunit (Homo sapiens, UniProt P51168+P51170+P51172)
T1 construct: expressed in transfected cells; host or cells: Xenopus laevis (African clawed frog) oocytes injected with cRNA
T1 sequence (P51172 1-638 isoform P51172-1): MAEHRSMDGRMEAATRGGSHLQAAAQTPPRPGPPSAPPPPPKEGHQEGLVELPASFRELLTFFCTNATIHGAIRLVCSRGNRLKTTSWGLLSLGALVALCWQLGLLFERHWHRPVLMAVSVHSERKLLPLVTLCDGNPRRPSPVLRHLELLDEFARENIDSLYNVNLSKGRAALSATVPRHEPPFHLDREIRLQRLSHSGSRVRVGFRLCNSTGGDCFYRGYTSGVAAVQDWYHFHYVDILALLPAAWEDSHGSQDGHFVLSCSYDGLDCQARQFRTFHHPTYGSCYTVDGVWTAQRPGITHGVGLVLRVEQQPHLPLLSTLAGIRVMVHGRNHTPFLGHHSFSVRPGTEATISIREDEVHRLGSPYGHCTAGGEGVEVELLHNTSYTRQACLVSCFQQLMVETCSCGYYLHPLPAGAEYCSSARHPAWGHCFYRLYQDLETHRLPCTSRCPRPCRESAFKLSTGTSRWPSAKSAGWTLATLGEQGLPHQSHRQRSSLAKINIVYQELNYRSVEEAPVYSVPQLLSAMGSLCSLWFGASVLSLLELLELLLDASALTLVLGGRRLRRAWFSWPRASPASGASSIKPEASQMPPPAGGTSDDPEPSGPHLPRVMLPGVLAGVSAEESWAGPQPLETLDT
T1 sequence (P51168 1-640): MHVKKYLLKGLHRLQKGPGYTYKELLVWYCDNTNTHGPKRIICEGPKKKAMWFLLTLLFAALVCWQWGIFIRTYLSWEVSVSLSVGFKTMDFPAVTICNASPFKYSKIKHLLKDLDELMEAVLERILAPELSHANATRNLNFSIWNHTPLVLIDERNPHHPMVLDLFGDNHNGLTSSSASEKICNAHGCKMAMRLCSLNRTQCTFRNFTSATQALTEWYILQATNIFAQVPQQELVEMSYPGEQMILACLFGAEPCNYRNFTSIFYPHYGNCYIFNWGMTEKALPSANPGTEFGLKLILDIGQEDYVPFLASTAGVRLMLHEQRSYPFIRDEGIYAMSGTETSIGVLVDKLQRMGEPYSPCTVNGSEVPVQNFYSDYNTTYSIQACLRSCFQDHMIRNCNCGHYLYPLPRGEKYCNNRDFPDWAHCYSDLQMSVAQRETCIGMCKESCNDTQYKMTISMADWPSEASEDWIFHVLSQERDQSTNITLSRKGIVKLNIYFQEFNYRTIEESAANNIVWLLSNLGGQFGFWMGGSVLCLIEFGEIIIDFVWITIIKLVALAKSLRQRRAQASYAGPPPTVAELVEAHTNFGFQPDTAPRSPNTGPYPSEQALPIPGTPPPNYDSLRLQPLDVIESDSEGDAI
T1 sequence (P51170 1-649): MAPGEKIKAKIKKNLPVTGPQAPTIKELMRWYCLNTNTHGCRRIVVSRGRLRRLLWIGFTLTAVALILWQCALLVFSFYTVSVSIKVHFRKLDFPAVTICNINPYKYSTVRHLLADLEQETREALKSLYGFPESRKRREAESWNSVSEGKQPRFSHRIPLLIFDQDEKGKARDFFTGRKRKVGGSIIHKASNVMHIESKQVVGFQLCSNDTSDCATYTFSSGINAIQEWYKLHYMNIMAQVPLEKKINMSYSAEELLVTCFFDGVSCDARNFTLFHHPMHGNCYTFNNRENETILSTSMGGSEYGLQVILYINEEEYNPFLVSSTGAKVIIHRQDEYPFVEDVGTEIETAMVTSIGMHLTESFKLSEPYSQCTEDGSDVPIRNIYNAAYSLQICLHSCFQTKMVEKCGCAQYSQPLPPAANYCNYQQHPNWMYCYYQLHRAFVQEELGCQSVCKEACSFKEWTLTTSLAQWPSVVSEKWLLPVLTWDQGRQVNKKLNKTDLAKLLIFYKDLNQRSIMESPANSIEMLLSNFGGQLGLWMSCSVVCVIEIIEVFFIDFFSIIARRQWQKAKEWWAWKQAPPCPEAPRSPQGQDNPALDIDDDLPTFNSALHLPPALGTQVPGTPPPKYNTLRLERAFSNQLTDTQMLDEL
Assay: Measurement of ENaC activation potency (two electrode voltage clamp current in ENaC-expressing oocyte)
Format: cell-based
Conditions: lowest concentration increasing the current value by not less than 10% vs before addition
Description: ENaC activation current value, namely, the inward current in ENaC-expressing oocyte was measured as follows.
According to the method described in Motonao Nakamura, Takao Shimizu: Experiment of African clawed frog oocyte, Experimental Medicine Vol. 11, No. 3, 224-232 (1993), oocyte was collected from African clawed frog, […], and the current value was measured by a Two Electrode Voltage Clamp technique. In the present invention, ND96 (96 mM NaCl, 2 mM KCl, 1 mM MgCl2, 5 mM Hepes, 1.8 mM CaCl2, pH 7.6) was used instead of MBS buffer in the above-mentioned document. Injector NANOLITER 2000 manufactured by World Precision Instruments was used for microinjection, OpusXpress 6000A manufactured by Molecular Devices was used for current value measurement by a Two Electrode Voltage Clamp technique, and Clampfit 10.2 software manufactured by Molecular Devices was used for data analysis.
Human ENaC δ, β and γ subunit genes shown by SEQ ID NOs: 1, 2 and 3, respectively, in the Sequence Listing were each cloned into a plasmid vector, and used as a template DNA for cRNA synthesis. cRNA was synthesized using MEGAscript kit manufactured by Ambion and according to the method of the manual of the manufacturer.
A mixture of the same amount of ENaC δ subunit cRNA (0.4 to 0.8 μg/μL), and β and γ subunits cRNA (0.4 μg/μL) was injected into the oocyte of African clawed frog at 27.6 nL per oocyte, and the oocyte was cultured for 16 hours to 72 hours. Thereafter, the oocyte was set on a measuring apparatus OpusXpress 6000A, the electrodes were inserted into the oocyte, the voltage was clamped at a level lower by −30 mV than the resting membrane potential by a Two Electrode Voltage Clamp technique, and the current value was measured.
To measure the ENaC activation potency, oocyte was stimulated with each test compound, and the minimum effective dose (hereinafter to be abbreviated as MED) of the compound at the time point when the electric current started to increase was measured. In this case, the minimum effective dose of the stimulation compound that increased the current value by not less than 10%, as compared to the current value before addition of the compound and without stimulation, was taken as MED. A smaller MED means higher ENaC activation potency.
Each test compound was directly dissolved in ND96, or first dissolved in dimethyl sulfoxide (DMSO) to 100 mM, and then prepared by diluting the solution with ND96 to a concentration used for the evaluation. The concentration of the test compound in ND96 was prepared to various concentrations within the range of 0.1 nM to 300 μm.
ND96 as a perfusion fluid was flowed at a rate of 0.5 mL/min through the measuring apparatus OpusXpress 6000A on which ENaC-expressing oocyte was set, the perfusion fluid was temporarily stopped every 3 minutes to add a test compound solution (0.25 mL) dissolved in ND96 at a rate of 0.5 mL/minute. In this way, the test compound was contacted with ENaC-expressing oocyte, and whether ENaC is activated by the compound was examined by measuring the current value. After addition of the test compound, feeding of the perfusion fluid was resumed to wash away the compound to be ready for the next addition of the compound.
The compound was added successively from a low concentration to a high concentration to stimulate ENaC-expressing oocyte. The concentrations actually added was, for example, 1 nM, 3 nM, 10 nM, 30 nM, 100 nM, 300 nM; 1 μM, 3 μM, 10 μm, 30 μm, 100 μm, 300 μm; 1.2 μM, 6 μM, 30 μm, 150 μm of one test compound. The compound was added from low concentrations to high concentrations at 3 minute intervals. The first compound was added from a low concentration to a high concentration, then the second and the third compounds were similarly added successively to the same oocyte, and changes in the current value were measured. The current value was continuously measured from the start to the end of the experiment. […]

| Compound | MED value (minimum effective dose) |
| --- | --- |
| Cn1cc(C[C@H](NC(=O)CCc2ccccc2)C(=O)O)c2ccccc21 [Example 71] | 1 to 3 µM |
| O=C(NCCc1c[nH]c2ccccc12)c1cc(O)ccc1O [Example 42] | 1 to 3 µM |
| COC(=O)[C@H](Cc1c[nH]c2ccccc12)NC(=O)c1ccc(Br)cc1O [Example 106] | 3 µM |
| O=C(NCCc1c[nH]c2ccc(O)cc12)c1ccc(Br)cc1O [Example 104] | 3 µM |
| O=C(N[C@@H](Cc1ccccc1)C(=O)O)c1ccc(Br)cc1O [Example 108] | 0.1 to 0.3 µM |
| O=C(NCCc1c[nH]c2ccc(O)cc12)c1c(C(F)(F)F)cccc1C(F)(F)F [Example 26] | 6 µM |
| COC(=O)[C@@H](Cc1c[nH]c2ccccc12)NC(=O)c1c(O)cccc1O [Example 2] | 0.6 µM |
| N[C@H](Cc1c[nH]c2ccccc12)C(=O)Nc1c(O)cccc1O [Example 23] | 10 µM |
| COc1cccc(OC)c1C(=O)NCCc1c[nH]c2ccc(O)cc12 [Example 25] | 3 µM |
| Cc1cc(O)c(C(=O)NCCc2c[nH]c3ccccc23)c(O)c1 [Example 124] | 3 µM |
| COC(=O)C(Cc1c[nH]c2cc(F)ccc12)NC(=O)c1c(O)cccc1O (stereo not drawn) [Example 17] | 1 µM |
| O=C(N[C@@H](Cc1ccccc1)C(=O)O)c1c(O)cccc1O [Example 82] | 1 µM |
| O=C(NCCc1c[nH]c2ccc(O)cc12)c1c(O)cc(O)cc1O [Example 28] | 1 to 3 µM |
| O=C(CCc1ccccc1)NC(C(=O)O)c1ccccc1 (stereo not drawn) [Example 79] | 10 µM |
| CC(Cc1c[nH]c2ccccc12)(NC(=O)c1c(O)cccc1O)C(=O)O (stereo not drawn) [Example 18] | 3 µM |
| COC(=O)[C@H](Cc1c[nH]c2ccccc12)NC(=O)c1cc(Br)ccc1O [Example 92] | 3 to 10 µM |
| O=C(NCCc1c[nH]c2ccc(O)cc12)c1c(Cl)cccc1Cl [Example 27] | 3 µM |

| Compound | MED value (minimum effective dose) |
| --- | --- |
| COc1ccc(CCC(=O)N[C@@H](Cc2c[nH]c3ccccc23)C(=O)O)cc1 [Example 65] | 3 µM |
| Cc1ccc2c(CC(NC(=O)CCc3ccccc3)C(=O)O)c[nH]c2c1 (stereo not drawn) [Example 77] | 1 to 3 µM |
| O=C(NC(Cc1c[nH]c2cc(F)ccc12)C(=O)O)c1c(O)cccc1O (stereo not drawn) [Example 19] | 1 µM |
| N[C@@H](Cc1ccccc1)C(=O)Nc1c(O)cccc1O [Example 80] | 3 µM |
| COC(=O)[C@H](Cc1ccccc1)NC(=O)c1c(O)cc(C)cc1O [Example 118] | 10 µM |
| Cc1cc(O)c(C(=O)N[C@@H](Cc2ccccc2)C(=O)O)c(O)c1 [Example 115] | 0.3 µM |
| COC(=O)[C@H](Cc1ccccc1)NC(=O)c1c(O)cc(O)cc1O [Example 122] | 1 µM |
| COC(=O)[C@H](Cc1cn(C)c2ccccc12)NC(=O)c1c(O)cccc1O [Example 11] | 3 µM |
| O=C(N[C@@H](Cc1c[nH]c2ccc(O)cc12)C(=O)O)c1c(O)cccc1O [Example 12] | 3 µM |
| O=C(N[C@@H](CCc1ccccc1)C(=O)O)c1c(O)cccc1O [Example 83] | 0.3-1^ μM |
| N[C@@H](CCc1ccccc1)C(=O)Nc1c(O)cccc1O [Example 81] | 3 µM |
| Cc1cc(O)c(C(=O)N[C@@H](Cc2c[nH]c3ccccc23)C(=O)O)c(O)c1 [Example 113] | 0.3 µM |
| O=C(N[C@@H](Cc1c[nH]c2ccccc12)C(=O)O)c1c(O)cc(O)cc1O [Example 121] | 3 µM |
| O=C(N[C@H](Cc1c[nH]c2ccccc12)C(=O)O)c1c(O)cccc1O [Example 4] | 0.6 µM |
| O=C(N[C@@H](Cc1c[nH]c2ccccc12)C(=O)O)c1ccc(Br)cc1O [Example 110] | 0.1 to 0.3 µM |
| COC(=O)[C@H](Cc1ccccc1)NC(=O)c1cc(Br)ccc1O [Example 96] | 1 µM |
